Bounds are passed on as bounds.

The experiment deals with T1, APOL1 (Homo sapiens, UniProt O14791).
T1 sequence (O14791 1-398 S342G/I384M): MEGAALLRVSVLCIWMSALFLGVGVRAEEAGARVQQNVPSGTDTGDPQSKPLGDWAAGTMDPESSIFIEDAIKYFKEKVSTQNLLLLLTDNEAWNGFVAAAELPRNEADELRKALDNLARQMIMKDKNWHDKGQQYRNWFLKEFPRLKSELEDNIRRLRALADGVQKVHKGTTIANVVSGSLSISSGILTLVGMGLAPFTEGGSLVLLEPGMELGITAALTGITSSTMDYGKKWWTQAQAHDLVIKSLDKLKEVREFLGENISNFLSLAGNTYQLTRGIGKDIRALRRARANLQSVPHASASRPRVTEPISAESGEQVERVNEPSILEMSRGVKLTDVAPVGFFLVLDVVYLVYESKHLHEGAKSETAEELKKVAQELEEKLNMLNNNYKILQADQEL
Put plainly: MultiTox-Fluor Multiplex Cytotoxicity Assay in tet-inducible APOL1 T-REx-HEK293 cells. Format: cell-based. Conditions: tet-inducible transgenic APOL1 T-REx-HEK293 cells, 50 ng/mL tet, 24 hours; ratio of dead to live cells; APOL1 variant (G0/G1/G2) not stated; read-out: IP50 (nM) (i.e., IC50 for cell proliferation). On the procedure:
The MultiTox-Fluor Multiplex Cytotoxicity Assay is a single-reagent-addition, homogeneous, fluorescence assay that measures the number of live and dead cells simultaneously in culture wells. The assay measures cell viability and cytotoxicity by detecting two distinct protease activities. The live-cell protease activity is restricted to intact viable cells and is measured using a fluorogenic, cell-permeant peptide glycyl-phenylalanylamino fluorocoumarin (GF-AFC) substrate. The substrate enters intact cells, where it is cleaved to generate a fluorescent signal proportional to the number of living cells. […] A second, cell-impermeant, fluorogenic peptide substrate (bis-AAF-R^110 Substrate) is used to measure dead-cell protease that has been released from cells that have lost membrane integrity. A ratio of dead to live cells is used to normalize data.
Briefly, the tet-inducible transgenic APOL1 T-REx-HEK293 cell lines were incubated with 50 ng/mL tet to induce APOL1 in the presence of 3-(2-(4-fluorophenyl)-1H-indol-3-yl)-N-((3S,4R)-4-hydroxy-2-oxopyrrolidin-3-yl)propenamide at 10.03, 3.24, 1.13, 0.356, 0.129, 0.042, 0.129, 0.0045, 0.0015, 0.0005 μM in duplicate for 24 hours in a humidified 37° C. incubator. The MultiTox reagent was added to each well and placed back in the incubator for an additional 30 minutes. The plate was read on the EnVision plate reader. A ratio of dead to live cells was used to normalize, and data was imported, analyzed, and fit using Genedata Screener (Basel, Switzerland) software. Data was normalized using percent of control, no tet (100% viability), and 50 ng/mL tet treated (0% viability),and fit using Smart Fit. The reagents, methods, and complete protocol for the MultiTox assay are described below.
Human embryonic kidney (HEK293) cell lines containing a tet-inducible expression system (T-REx™; Invitrogen, Carlsbad, CA) and Adeno-associated virus site 1 pAAVS1-Puro-APOL1 G0 or pAAVS1-Puro-APOL1 G1 or pAAVS1-Puro-APOL1 G2 Clones G0 DC2.13, G1 DC3.25, and G2 DC4.44 were grown in a T-225 flask at ˜90% confluency in cell growth media (DMEM, 10% Tet-free FBS, 2 mM L-glutamine, 100 Units/mL penicillin-streptomycin, 5 μg/mL blasticidin S HCl, 1 μg/mL puromycin dihydrochloride). Cells were washed with DPBS and then trypsinized to dissociate from the flask. Media was used to quench the trypsin, cells were then pelleted at 200 g and resuspended in fresh cell assay media (DMEM, 2% Tet-free FBS, 2 mM L-glutamine, 100 Units/mL penicillin-streptomycin). Cells were counted and diluted to 1.17×10^6 cells/mL. 20 μL of cells (23,400/well) were dispensed in every well of a 384-well Poly-D-Lysine coated plate using the Multidrop dispenser. The plates were then incubated at room temperature for one hour.
Tetracycline is needed to induce APOL1 expression. 1 mg/mL tet stock in water was diluted to 250 ng/mL (5×) in cell assay media. 60 μL of cell assay media (no tet control) was dispensed in columns 1 and 24, and 60 μL of 5× tet in 384-PP-round bottom plate was dispensed in columns 2 to 23 with the Multidrop dispenser.
Assay ready plates from the Global Compound Archive were ordered using template 384_APOL1Cell_DR10n2_50 μM_v3. Compounds were dispensed at 200 nL in DMSO. The final top concentration was 10 μM with a 10 point 3-fold dilution in duplicate in the MultiTox assay.
20 μL was transferred from the 5× tet plate to the ARP and mixed, then 5 μL of 5× tet and the compounds were transferred to the cell plate and mixed using the Bravo. The cell plate was placed in the humidified 37° C. 5% CO2 incubator for 24 hours.
The MultiTox-Fluor Multiplex Cytotoxicity Assay was performed in accordance with the manufacturer's protocol. After cells were incubated with tet and compound for 24 hours, 25 μL of 1× MultiTox reagent was added to each well using the Multidrop dispenser; the plates were placed on a plate shaker (600 rpm) for 2 minutes, then centrifuged briefly and placed back in the 37° C. incubator for 30 minutes. […]
Take `Cc1cccc([C@@]2(O)CCN(Cc3ccc4c(c3)n(C)c(=O)n4C)[C@@H](C)C2)c1` [Compound 1, 5-[[(2S,4R)-4-hydroxy-2-methyl-4-(m-tolyl)-1-piperidyl]methyl]-1,3-dimethyl-benzimidazol-2-one]: the IC50 is 100 to 500 nM.

Regarding `C[C@H]1C[C@@](O)(c2ccccc2)CCN1Cc1ccc2c(c1)n(C)c(=O)n2C` [Compound 2], the IC50 fell in the range of 100 to 500 nM.

As for `C[C@@H]1C[C@](O)(c2ccccc2)CCN1Cc1ccc2c(c1)n(C)c(=O)n2C` [Compound 3], the IC50 lay in the range of 500 to 5000 nM.

As for `C[C@H]1C[C@@](O)(c2cccc(Cl)c2)CCN1Cc1ccc2c(c1)n(C)c(=O)n2C` [Compound 4], the IC50 was no more than 100 nM.

Take `C[C@H]1CC(O)(c2cccc(C(F)(F)F)c2)CCN1Cc1ccc2c(c1)n(C)c(=O)n2C` (some centres unmarked) [Compound 5]: the IC50 was 100 to 500 nM.

`C[C@H]1C[C@](O)(c2ccc(Cl)cc2)CCN1Cc1ccc2c(c1)n(C)c(=O)n2C` [Compound 6]: the IC50 is 500 to 5000 nM.

As to `C[C@H]1C[C@@](O)(c2ccc(Cl)cc2)CCN1Cc1ccc2c(c1)n(C)c(=O)n2C` [Compound 7], the IC50 is no more than 100 nM.

`C[C@H]1C[C@@](O)(c2cc(F)cc(Cl)c2)CCN1Cc1ccc2c(c1)n(C)c(=O)n2C` [Compound 8]: the IC50 was no more than 100 nM.

Regarding `C[C@H]1C[C@@](O)(c2ccc(Cl)c(Cl)c2)CCN1Cc1ccc2c(c1)n(C)c(=O)n2C` [Compound 9], the IC50 is no more than 100 nM.

In the case of `C[C@@H]1C[C@](O)(c2ccc(Cl)cc2)CCN1Cc1ccc2c(c1)n(C)c(=O)n2C` [Compound 10], the IC50 was no more than 100 nM.

`C[C@@H]1C[C@](O)(c2cccc(F)c2)CCN1Cc1ccc2c(c1)n(C)c(=O)n2C` [Compound 11]: the IC50 is 100 to 500 nM.

In the case of `C[C@@H]1C[C@](O)(c2ccc(Cl)c(Cl)c2)CCN1Cc1ccc2c(c1)n(C)c(=O)n2C` [Compound 12], the IC50 is 100 to 500 nM.

As for `C[C@H]1C[C@@](O)(c2cccc(C3CC3)c2)CCN1Cc1ccc2c(c1)n(C)c(=O)n2C` [Compound 13], the IC50 is no more than 100 nM.

With `C[C@H]1C[C@@](O)(c2ccc3c(c2)CCO3)CCN1Cc1ccc2c(c1)n(C)c(=O)n2C` [Compound 14], the IC50 fell in the range of 500 to 5000 nM.

As for `Cc1cc(C)cc([C@@]2(O)CCN(Cc3ccc4c(c3)n(C)c(=O)n4C)[C@@H](C)C2)c1` [Compound 15], the IC50 was no more than 100 nM.

For the molecule `C[C@H]1C[C@@](O)(c2cccc(Cl)c2)CCN1Cc1cnn(C2CCS(=O)(=O)C2)c1` (stereo partly drawn) [Compound 16, (2S,4R)-4-(3-chlorophenyl)-1-[[1-(1,1-dioxothiolan-3-yl)pyrazol-4-yl]methyl]-2-methyl-piperidin-4-ol], the IC50 is 100 to 500 nM.

For the molecule `CC(C)n1cc(CN2CC[C@](O)(c3cccc(Cl)c3)C[C@@H]2C)cn1` [Compound 17], the IC50 fell in the range of 500 to 5000 nM.

Turning to `Cc1ccc(CN2CC[C@](O)(c3cccc(Cl)c3)C[C@@H]2C)nn1` [Compound 18], the IC50 is 500 to 5000 nM.

In the case of `Cc1ncc(CN2CC[C@](O)(c3cccc(Cl)c3)C[C@@H]2C)cn1` [Compound 19], the IC50 lay in the range of 500 to 5000 nM.

With `C[C@H]1C[C@@](O)(c2cccc(Cl)c2)CCN1Cc1cnn(CC(=O)N(C)C)c1` [Compound 20], the IC50 lay in the range of 100 to 500 nM.

In the case of `C[C@H]1C[C@@](O)(c2cccc(Cl)c2)CCN1Cc1cnn(CCS(C)(=O)=O)c1` [Compound 21], the IC50 was no more than 100 nM.

Consider `C[C@H]1C[C@@](O)(c2cccc(Cl)c2)CCN1Cc1ncco1` [Compound 22], for which the IC50 lay within 500 to 5000 nM.

Take `C[C@H]1C[C@@](O)(c2cccc(Cl)c2)CCN1Cc1cnn(-c2ccccn2)c1` [Compound 23]: the IC50 is no more than 100 nM.

Regarding `C[C@H]1C[C@@](O)(c2cccc(Cl)c2)CCN1Cc1ccc(C(N)=O)cc1` [Compound 24], the IC50 lay within 100 to 500 nM.

With `Cc1nc(CN2CC[C@](O)(c3cccc(Cl)c3)C[C@@H]2C)co1` [Compound 25], the IC50 lay in the range of 500 to 5000 nM.

As to `Cc1nc(CN2CC[C@](O)(c3cccc(Cl)c3)C[C@@H]2C)c[nH]1` [Compound 26], the IC50 was in the range of 500 to 5000 nM.

Source of the values: patent US20250163021A1, “2-METHYL-4-PHENYLPIPERIDIN-4-OL DERIVATIVES AS INHIBITORS OF APOL1 AND METHODS OF USING SAME” (Vertex Pharmaceuticals Incorporated, priority 2022, published 2025).
